{"source": "patent US20190284176A1", "about": "“COMPOSITIONS AND METHODS FOR TREATING CARDIOMYOPATHY” (CASE WESTERN RESERVE UINVERSITY, priority 2018, published 2019)", "key": {"[1]": {"target": "T1, CCR2 (Mus musculus, UniProt P51683)", "T1 construct": "tissue Jackson laboratory (mice); host or cells: whole animal: WT C57BL/6J mice; CCR2 on circulating classic monocytes / infiltrating macrophages", "T1 sequence (P51683 whole entry)": "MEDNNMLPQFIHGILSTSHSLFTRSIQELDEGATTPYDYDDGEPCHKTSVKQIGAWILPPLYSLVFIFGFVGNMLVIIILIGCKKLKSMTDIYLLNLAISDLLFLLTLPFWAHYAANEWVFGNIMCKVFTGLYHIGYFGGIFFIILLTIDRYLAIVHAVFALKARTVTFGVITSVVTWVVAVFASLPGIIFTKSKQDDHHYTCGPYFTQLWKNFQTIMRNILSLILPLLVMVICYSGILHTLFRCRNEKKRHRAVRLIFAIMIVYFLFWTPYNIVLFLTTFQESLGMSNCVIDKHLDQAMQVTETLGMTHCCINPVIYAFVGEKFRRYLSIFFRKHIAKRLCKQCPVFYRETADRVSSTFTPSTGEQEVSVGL", "test": "RS-504393 CCR2 blockade in early-phase TAC pressure overload hypertrophy", "type": "in vivo", "conditions": "for cardiac macrophage populations / numbers: before and after 1-wk TAC, 2 mg/kg twice daily oral gavage, FACS (FIG. 7), 2 mg/kg", "protocol": "(§1) Macrophage depletion was achieved by injection (i.v.) of Clodronate liposomes at 500 ug/kg on every other day, starting from 1-day before or 14-day after cardiac surgery as indicated in specific experiments. PBS-containing liposomes were used as vehicle control (Veh). Clodronate liposomes and control liposomes were obtained from the nonprofit Consortium Foundation Clodronate Liposomes. To inhibit monocyte trafficking in vivo, RS-504393 was dissolved in DMSO, diluted 1:20 in PBS and administrated at 2 mg/kg twice daily by oral gavage, starting from 1-3 day before or 14-day after cardiac surgery as indicated in specific experiments. PBS with 5% DMSO was used as vehicle control.\nTransverse aortic constriction (TAC) model and echocardiography were performed as described previously. Mice were anaesthetized by ketamine xylazine cocktail (100 uL i.p.) for TAC surgery to reduce aorta diameter to 27-gauge. Buprenorphine was administrated daily (i.p.) for first 5-days post-TAC. Blood pressure gradient across ligation site was confirmed by Doppler echography. For echocardiography, mice were anaesthetized by inhalation of 1% isoflurane vaporized in 100% oxygen. LV function was recorded at parasternal short axis view in B-mode and M-mode on a VEVO 770 High-Resolution In Vivo Micro-Imaging System (VisualSonics). ECHO data were recorded at steady heart rate above 500 bpm. LV function was calculated as ejection fraction (EF) or fractional shortening (FS).\nPeritoneal macrophages were collected as described previously. Cardiac macrophages were gated from whole heart cells using surface antibodies (CD45+CD11b+F4/80+Ly6G-CD64+). Mouse heart is perfused, excised, minced, digested with Type I collagenase, mechanically disrupted and filtered through 70 μm cell strainer to get single cell suspension. Cells are collected by centrifugation, subjected to live-death dye and surface antibody staining, and analyzed by flow cytometry. Cells were also sorted by flow cytometry to collect cardiac macrophages. […] After RBC lysis, cells were stained with surface antibodies and analyzed by FACS. […]"}, "[2]": {"target": "T1, CCR2", "test": "RS-504393 administration from day 14 post-TAC in established pressure overload hypertrophy", "type": "in vivo", "conditions": "established POH", "protocol": "as §1\nTransverse aortic constriction (TAC) model and echocardiography were performed as described previously. […] LV function was recorded at parasternal short axis view in B-mode and M-mode on a VEVO 770 High-Resolution In Vivo Micro-Imaging System (VisualSonics). ECHO data were recorded at steady heart rate above 500 bpm. LV function was calculated as ejection fraction (EF) or fractional shortening (FS).\nTissue samples were homogenized in QIAzol lysis reagent (Qiagen, 79306) with a TissueLyser (Qiagen). […] Quantitative real-time PCR (qPCR) was performed with either the TaqMan method (Roche Universal ProbeLibrary System) or the SYBR green method on a ViiA 7 Real-Time PCR System (Applied Biosystems). […]"}}, "note": "Entries after “also recorded” stand apart in the source; their conditions may differ.", "data": [{"smiles": "Cc1ccc2c(c1)C1(CCN(CCc3nc(-c4ccccc4)oc3C)CC1)OC(=O)N2", "note": "[RS-504393]", "values": [{"measurement": "cardiac macrophage populations / numbers", "setting": "[1]", "value": "no effect"}, {"measurement": "cardiac macrophage populations / numbers", "setting": "[1]; listed as RS", "value": "no impact"}, {"measurement": "cardiac function / POH", "setting": "[1]; before and after 1 wk post-TAC, echocardiography (FIG. 3A), listed as RS", "value": "no effect; also recorded: no impact"}, {"measurement": "cardiac hypertrophy", "setting": "[2]; RS oral administration 2 wk after TAC (FIG. 16)", "value": "without affecting cardiac hypertrophy"}, {"measurement": "cardiac function (LV function by echocardiography)", "setting": "[2]; RS oral administration 2 wk after TAC, to 6-week post-TAC (FIG. 16)", "value": "preserved cardiac function"}]}]}
